# Assay results published in US6468476B1, “Methods for using-co-regulated genesets to enhance detection and classification of gene expression patterns” (Rosetta Inpharmatics, Inc., priority 1998, dated 2002).
# System: genes regulated by the Gcn4 transcription factor
# Assay: Transcript response (DNA microarray) to a titration series of FK506, genes of the Gcn4 geneset
# Assay type: cell-based, Saccharomyces cerevisiae
# Protocol: Yeast (Saccharomyces cerevisiae, Strain YPH499, see, Sikorski and Hieter, 1989, A system of shuttle vectors and yeast host strains designated for efficient manipulation of DNA in Saccharomyces cerevisiae, Genetics 122:19-27) cells were grown in YAPD at 30° C. to an OD600 of 1.0 (±0.2), and total RNA prepared by breaking cells in phenol/chloroform and 0.1% SDS by standard procedures (Ausubel et al., 1995, Current Protocols in Molecular Biology, Greene Publishing and Wiley-Interscience, New York, Ch. 13). Poly(A)^+ RNA was selected by affinity chromatography on oligo-dT cellulose (New England Biolabs) essentially as described in Sambrook et al. (Molecular Cloning—A Laboratory Manual (2nd Ed.), Vol. 1, Cold Spring Harbor Laboratory, Cold Spring Harbor, N.Y., 1989). First strand cDNA synthesis was carried out with 2 μg poly(A)^+ RNA and SuperScript™ II reverse transcriptase (Gibco-BRL) according to the manufacturer's instructions with the following modifications. Deoxyribonucleotides were present at the following concentrations: dA, dG, and dC at 500 μM each, dT at 100 μM and either Cy3-dUTP or Cy5-dUTP (Amersham) at 100 μM. cDNA synthesis reactions were carried out at 42-44° C. for 90 minutes, after which RNA was degraded by the addition of 2 units of RNAse H, and the cDNA products were purified by two successive rounds of centrifugation dialysis using MICROCON-30 microconcentrators (Amicon) according to the manufacturer's recommendations.
# Double-stranded DNA polynucleotides corresponding in sequence to each ORF in the S. cerevisiae genome encoding a polypeptide greater than 99 amino acids (based on the published yeast genomic sequence, e.g., Goffeau et al., 1996, Science 274:546-567) are made by polymerase chain reaction (PCR) amplification of yeast genomic DNA. Two PCR primers are chosen internal to each of the ORFs according to two criteria: (i) the amplified fragments are 300-800 bp and (ii) none of the fragments have a section of more than 10 consecutive nucleotides of sequence in common. Computer programs are used to aid in the design of the PCR primers. Amplification is carried out in 96 well microtitre plates. The resulting DNA fragments are printed onto glass microscope slides using the method of Shalon et al., 1996, Genome Research 6:639-645.
# Fluorescently-labeled cDNAs (2-6 μg) are resuspended in 4×SSC plus 1 μg/μl tRNA as carrier and filtered using […] filters (Millipore, Bedford, Mass.). SDS is added to 0.3%, prior to heating to 100° C. for 2 minutes. Probes are cooled and immediately hybridized to the microarrays produced as described in Example 6.2, for 4 hours at 65° C. Non-hybridized probe is removed by washing in 1×SSC plus 0.1% SDS at ambient temperature for 1-2 minutes. Microarrays are scanned with a fluorescence laser-scanning device as previously described (Schena et al., 1995, Science 270:467-470; Schena et al., 1995, Proc. Natl. Acad. Sci. USA 93:[…]) and the results (including the positions of perturbations) are recorded.
# Geneset number 3 in the clustering analysis result of FIG. 6 involves genes regulated by the Gcn4 transcription factor. This was verified via the literature and via multiple sequence alignment analysis of the regulatory regions 5′ to the individual genes (Stormo and Hartzell, 1989, Identifying protein binding sites from unaligned DNA fragments, Proc Natl Acad Sci 86:1183-1187; Hertz and Stormo, 1995, Identification of consensus patterns in unaligned DNA and protein sequences: a large-deviation statistical basis for penalizing gaps, Proc of 3rd Intl Conf on Bioinformatics and Genome Research, Lim and Cantor, eds., World Scientific Publishing Co., Ltd. Singapore, pp. 201-216). […] These 20 were used to define a geneset. Response profiles to a titration series of the drug FK506, which is known to hit this pathway at higher concentrations, were projected onto this geneset. […]
structure (smiles),measurement,setting,value
C=CC[C@@H]1/C=C(\C)C[C@H](C)C[C@H](OC)[C@H]2O[C@@](O)(C(=O)C(=O)N3CCCC[C@H]3C(=O)O[C@H](/C(C)=C/[C@@H]3CC[C@@H](O)[C@H](OC)C3)[C@H](C)[C@@H](O)CC1=O)[C@H](C)C[C@@H]2OC [FK506],Geneset Average response (projected response of the 20-gene Gcn4 geneset),FK506 0.1 μg/ml,0.1728 standard deviations of Log10(Expression Ratio)
same,Response of gene ARG1,FK506 0.1 μg/ml,0.2083 standard deviations of Log10(Expression Ratio)
same,Response of gene ARG4,FK506 0.1 μg/ml,0.3585 standard deviations of Log10(Expression Ratio)
same,"Response of gene ARG5,6",FK506 0.1 μg/ml,0.1162 standard deviations of Log10(Expression Ratio)
same,Response of gene ECM13,FK506 0.1 μg/ml,0.1269 standard deviations of Log10(Expression Ratio)
same,Response of gene HIS3,FK506 0.1 μg/ml,−0.3719 standard deviations of Log10(Expression Ratio)
same,Response of gene HIS5,FK506 0.1 μg/ml,0.0292 standard deviations of Log10(Expression Ratio)
same,Response of gene MET16,FK506 0.1 μg/ml,0.0225 standard deviations of Log10(Expression Ratio)
same,Response of gene NCE3,FK506 0.1 μg/ml,0.0371 standard deviations of Log10(Expression Ratio)
same,Response of gene PCL5,FK506 0.1 μg/ml,0.1418 standard deviations of Log10(Expression Ratio)
same,Response of gene SNO1,FK506 0.1 μg/ml,−0.2899 standard deviations of Log10(Expression Ratio)
same,Response of gene SNZ1,FK506 0.1 μg/ml,−0.7223 standard deviations of Log10(Expression Ratio)
same,Response of gene SSU1,FK506 0.1 μg/ml,0.6257 standard deviations of Log10(Expression Ratio)
same,Response of gene YBR047W,FK506 0.1 μg/ml,0.0781 standard deviations of Log10(Expression Ratio)
same,Response of gene YER024W,FK506 0.1 μg/ml,0.1985 standard deviations of Log10(Expression Ratio)
same,Response of gene YGL117W,FK506 0.1 μg/ml,0.6309 standard deviations of Log10(Expression Ratio)
same,Response of gene YGL184C,FK506 0.1 μg/ml,0.0654 standard deviations of Log10(Expression Ratio)
same,Response of gene YHR029C,FK506 0.1 μg/ml,−0.031 standard deviations of Log10(Expression Ratio)
same,Response of gene YMR195W,FK506 0.1 μg/ml,0.7615 standard deviations of Log10(Expression Ratio)
same,Geneset Average response (projected response of the 20-gene Gcn4 geneset),FK506 0.31 μg/ml,0.6753 standard deviations of Log10(Expression Ratio)
same,Response of gene ARG1,FK506 0.31 μg/ml,0.3436 standard deviations of Log10(Expression Ratio)
same,Response of gene ARG4,FK506 0.31 μg/ml,0.3508 standard deviations of Log10(Expression Ratio)
same,"Response of gene ARG5,6",FK506 0.31 μg/ml,0.2722 standard deviations of Log10(Expression Ratio)
same,Response of gene ARO3,FK506 0.31 μg/ml,−0.1371 standard deviations of Log10(Expression Ratio)
same,Response of gene ECM13,FK506 0.31 μg/ml,0.2197 standard deviations of Log10(Expression Ratio)
same,Response of gene HIS3,FK506 0.31 μg/ml,0.1282 standard deviations of Log10(Expression Ratio)
same,Response of gene HIS5,FK506 0.31 μg/ml,0.2175 standard deviations of Log10(Expression Ratio)
same,Response of gene MET16,FK506 0.31 μg/ml,−0.6269 standard deviations of Log10(Expression Ratio)
same,Response of gene NCE3,FK506 0.31 μg/ml,0.1668 standard deviations of Log10(Expression Ratio)
same,Response of gene PCL5,FK506 0.31 μg/ml,0.2767 standard deviations of Log10(Expression Ratio)
same,Response of gene SNO1,FK506 0.31 μg/ml,0.0244 standard deviations of Log10(Expression Ratio)
same,Response of gene SNZ1,FK506 0.31 μg/ml,0.0244 standard deviations of Log10(Expression Ratio)
same,Response of gene SSU1,FK506 0.31 μg/ml,0.6655 standard deviations of Log10(Expression Ratio)
same,Response of gene YBR047W,FK506 0.31 μg/ml,0.1553 standard deviations of Log10(Expression Ratio)
same,Response of gene YER024W,FK506 0.31 μg/ml,−0.0419 standard deviations of Log10(Expression Ratio)
same,Response of gene YGL117W,FK506 0.31 μg/ml,0.6768 standard deviations of Log10(Expression Ratio)
same,Response of gene YGL184C,FK506 0.31 μg/ml,−0.0207 standard deviations of Log10(Expression Ratio)
same,Response of gene YHR029C,FK506 0.31 μg/ml,0.2438 standard deviations of Log10(Expression Ratio)
same,Response of gene YMR195W,FK506 0.31 μg/ml,0.3323 standard deviations of Log10(Expression Ratio)
same,"'Geneset' response, significance",FK506 1.6 μg/ml,> 3 sigrna
same,Geneset Average response (projected response of the 20-gene Gcn4 geneset),FK506 1.6 μg/ml,3.3045 standard deviations of Log10(Expression Ratio)
same,Response of gene ARG1,FK506 1.6 μg/ml,3.1765 standard deviations of Log10(Expression Ratio)
same,Response of gene ARG4,FK506 1.6 μg/ml,1.6674 standard deviations of Log10(Expression Ratio)
same,"Response of gene ARG5,6",FK506 1.6 μg/ml,1.1844 standard deviations of Log10(Expression Ratio)
same,Response of gene ARO3,FK506 1.6 μg/ml,0.2684 standard deviations of Log10(Expression Ratio)
same,Response of gene CPA2,FK506 1.6 μg/ml,1.2429 standard deviations of Log10(Expression Ratio)
same,Response of gene ECM13,FK506 1.6 μg/ml,0.5226 standard deviations of Log10(Expression Ratio)
same,Response of gene HIS3,FK506 1.6 μg/ml,0.71 standard deviations of Log10(Expression Ratio)
same,Response of gene HIS5,FK506 1.6 μg/ml,0.9802 standard deviations of Log10(Expression Ratio)
same,Response of gene MET16,FK506 1.6 μg/ml,−0.1885 standard deviations of Log10(Expression Ratio)
same,Response of gene NCE3,FK506 1.6 μg/ml,1.2896 standard deviations of Log10(Expression Ratio)
same,Response of gene PCL5,FK506 1.6 μg/ml,0.4127 standard deviations of Log10(Expression Ratio)
same,Response of gene SNO1,FK506 1.6 μg/ml,−0.4772 standard deviations of Log10(Expression Ratio)
same,Response of gene SNZ1,FK506 1.6 μg/ml,−0.4772 standard deviations of Log10(Expression Ratio)
same,Response of gene SSU1,FK506 1.6 μg/ml,0.2883 standard deviations of Log10(Expression Ratio)
same,Response of gene YBR047W,FK506 1.6 μg/ml,0.2806 standard deviations of Log10(Expression Ratio)
same,Response of gene YER024W,FK506 1.6 μg/ml,0.4868 standard deviations of Log10(Expression Ratio)
same,Response of gene YGL117W,FK506 1.6 μg/ml,1.6276 standard deviations of Log10(Expression Ratio)
same,Response of gene YGL184C,FK506 1.6 μg/ml,−0.0731 standard deviations of Log10(Expression Ratio)
same,Response of gene YHR029C,FK506 1.6 μg/ml,0.4421 standard deviations of Log10(Expression Ratio)
same,Response of gene YMR195W,FK506 1.6 μg/ml,1.6021 standard deviations of Log10(Expression Ratio)
